Key:
[1] = tested on: MDA-MB-231 xenograft; assay: In vivo antitumour effect on MDA-MB-231 xenograft in immunosuppressed mice; set-up: species or system CBA/Ca mice
Procedure: The immunosuppression of mice was carried out by using the method of Steel et al. [Br. J. Cancer, 37, 224-230 (1978)]. Immunosuppression and xeno-transplantation
CBA-Ca female mice of about 6 weeks old were thymectomized and then, after one week, they were irradiated with 60Co (whole body irradiation; the lethal dose is 9.5 Gray). Within 24 hours 3 to 5 x 10^5 myelocytes were injected into the animals. Beneath the skin of the immunosuppressed mice 2 x 10^7 tumour cells or, in the case of later passages, […] were implanted. […] The treatment with steroid hormone was stopped by at least one week before beginning the investigation.
Recent investigations have begun on 28 animals bearing MCF-7 xenograft and on 28 animals bearing MDA-MB-231 xenograft. On animals bearing MCF-7 tumour the treatment was commenced in the 5th week following xeno-transplantation; the tumour volume was 205 to 225 mm^3. On animals bearing MDA-MB-231 tumour, the treatment was started in the 4th week after xeno-transplantation with a tumour volume of 140 to 150 mm^3. […] The control groups were daily treated with physiological saline s.c. (Each treated group consisting of 7 animals).
A more recent study was started on 28 animals bearing MDA-MB-231 xenograft. The treatment was begun in the 4th or 5th week following xenotransplantation. The tumour volume was 0.165 to 0.194 cm^3. […] (For treatment of the control group, see the preceding Examples). Each group consisted of 7 animals.

[2] = tested on: Ishikawa; assay: Inhibition of colony formation by GnRH analogues (dose-survival, Example 48); format: cell-based, human; details: within the dose range used (1-50 µM)
Procedure: (§1) The examination gives accurate information about the cell-damaging effect of the substance tested as a function of varying doses. The treatment was carried out once; the colonies formed from the surviving cells were counted after 8 - 12 days. […] A part of the arrested cells again entered the cycle, another part of them might be destroyed (apoptosis). […] In the case of a dose-response investigation, colonies containing less than 15 cells were not counted. 300 cells were put into each Petri dishes of 3.5 cm in diameter. The treatment was once carried out 24 hours after setting, then the colonies formed were counted after 8 - 12 days. The cells were treated once after 24 hours with 1-50 µM of various GnRH analogues of Examples above or with 1 - 50 µM of GnRH-III, respectively. The percentages of inhibition obtained on MCF-7, MDA-MB-231, PC3 and Ishikawa cells, respectively, together with the dose of the active agent used are shown in Table VIII.

[3] = tested on: MCF-7; assay: as above; format: cell-based, human; details: 50 µM, treated once
Procedure: as §1

[4] = tested on: PC3; assay: as above; format: cell-based, human; details: within the dose range used (1-50 µM)
Procedure: as §1

[5] = tested on: MDA-MB-231; assay: as above; format: cell-based, human; details: 50 µM
Procedure: as §1

[6] = prolonged treatment for three cycles; high doses; cited from earlier work
[7] = tested on: rat hypophysis; details: superfusion, relative to human GnRH; cited from earlier work
[8] = tested on: PC3 human prostate carcinoma cell line; assay: Inhibition of colony formation (dose-survival relation, Example 18); format: cell-based; details: 50 µM
[9] = tested on: MDA-MB-231 human mammary carcinoma cell line; assay: as above; format: cell-based; details: 50 µM
[10] = tested on: MCF-7 human mammary carcinoma cell line; assay: as above; format: cell-based; details: 50 µM (active substance), treated once
[11] = MDA-MB-231 xenograft, after 9 week treatment, 100 µg daily s.c.
[12] = Table V, treatment week 2, 1x100 µg daily s.c.
[13] = Table V, treatment week 4, 1x100 µg daily s.c.
[14] = Table V, treatment week 6, 1x100 µg daily s.c.
[15] = week 0, daily s.c., 1 x 100 µg series
[16] = week 1, daily s.c., 1 x 100 µg series
[17] = week 2, daily s.c., 1 x 100 µg series
[18] = week 3, daily s.c., 1 x 100 µg series
[19] = week 4, daily s.c., 1 x 100 µg series
[20] = week 5, daily s.c., 1 x 100 µg series
[21] = week 6, daily s.c., 1 x 100 µg series
[22] = week 7, daily s.c., 1 x 100 µg series

SMILES: NCCCC[C@H](NC(=O)[C@H](Cc1c[nH]c2ccccc12)NC(=O)[C@H](CC(=O)O)NC(=O)[C@H](Cc1c[nH]cn1)NC(=O)[C@H](CO)NC(=O)[C@H](Cc1c[nH]c2ccccc12)NC(=O)[C@H](Cc1c[nH]cn1)NC(=O)[C@@H]1CCC(=O)N1)C(=O)N1CCC[C@H]1C(=O)NCC(N)=O [GnRH-III, reference compound]
- rate of tumour growth ([1]; MDA-MB-231 xenograft, 100 µg daily s.c.): did not inhibit
- Volume (cm^3) of tumours [1, 11]: 2.017 ± 0.585 cm^3
- Weight (g) of tumours [1, 11]: 1.84 ± 0.52 g
- Inhibition % [1, 12]: 14%
- Tumour volume as control (%) [1, 12]: 86%
- Inhibition % [1, 13]: 15%
- Tumour volume as control (%) [1, 13]: 85%
- Inhibition % [1, 14]: 15%
- Tumour volume as control (%) [1, 14]: 85%
- Tumour volume (cm^3) [1, 15]: 0.19 cm^3
- Tumour volume as control (%) [1, 15]: 115%
- Tumour volume (cm^3) [1, 16]: 0.26 cm^3
- Tumour volume as control (%) [1, 16]: 113%
- Tumour volume (cm^3) [1, 17]: 0.36 cm^3
- Tumour volume as control (%) [1, 17]: 86%
- Tumour volume (cm^3) [1, 18]: 0.47 cm^3
- Tumour volume as control (%) [1, 18]: 85%
- Tumour volume (cm^3) [1, 19]: 0.55 cm^3
- Tumour volume as control (%) [1, 19]: 85%
- Tumour volume (cm^3) [1, 20]: 0.81 cm^3
- Tumour volume as control (%) [1, 20]: 87%
- Tumour volume (cm^3) [1, 21]: 1.04 cm^3
- Tumour volume as control (%) [1, 21]: 85%
- Tumour volume (cm^3) [1, 22]: 1.28 cm^3
- Tumour volume as control (%) [1, 22]: 101%
- inhibition of colony formation [2]: did not inhibit
- % Inhibition of the colony formation [3]: 45%
- inhibition of colony formation [4]: 21%
- % Inhibition of the colony formation [5]: 49%
- ovulation of female rats [6]: did not inhibit the ovulation
- LH-releasing effect [7]: about thousand times weaker than that of the human GnRH
- % Inhibition of colony formation [8]: 21%
- % Inhibition of colony formation [9]: 69%
- % Inhibition of colony formation [10]: 65%

Reference: EP0728012B1, “NOVEL GnRH ANALOGUES WITH ANTITUMOUR EFFECTS AND PHARMACEUTICAL COMPOSITIONS THEREOF” (Lovas, Sandor, priority 1994, dated 1996)
